# According to patent US8138188B2, “Melanocortin type 4 receptor agonist piperidinoylpyrrolidines” (Pfizer Inc., priority 2006, dated 2012):
# Assays:
# [1] = In vitro metabolism rate determination, rat liver microsome (RLM) assay; format: in vitro ADME; settings: rat liver microsomes, substrate 1 μM; read-out: RLM (intrinsic clearance)
# Source text: (§1) In vitro Metabolism Rate Determination (Human Liver Microsome (HLM); Rat Liver Microsome (RLM) Assay)
# (§2) Many drugs are metabolised by the cytochrome P450 mono-oxygenase system. This enzyme is found in high concentrations in the liver and is bound to the endoplasmic reticulum of the hepatocyte. The enzyme system can be obtained in semi-purified state by the preparation of the hepatic microsomal fractions. Determining a compound's in vitro half-life in such a system provides a useful indicator of metabolic stability.
# (§3) Methodology For In Vitro Rate Determination Using Hepatic & Supermix Microsomes
# (§4) The method outlined below is for a total incubation volume of 1.5 ml.
# (§5) 1. The following mixture is prepared in a test tube:
# (§6) 2. Defrost microsomes at room temperature and add sufficient microsomes to give a final concentration of 0.5 nmol cytochrome P450/ml of incubation e.g. for a 1.5 ml incubation, the volume of microsomes to be added is:
# (§7) [formula] 3. Add sufficient MilliQ water to give a total incubation volume of 1.425 ml. 4. Remove 237.5 μl of incubation mix and place in test tube for PNA positive control. Add 2.5 μl of PNA solution, whirlimix, and put tube into a rack in the thermostatically controlled shaking water bath 5. Remove 100 μl for no substrate control and dispense in test tube. Place test tube in a rack in the thermostatically controlled shaking water bath. 6. Add substrate to the incubation. The substrate should be at an initial concentration of 1 μM. The volume of substrate required in the remaining 1.162.5 ml incubation is calculated as follows:
# (§8) [formula] • N.B. The volume of organic solvent added should not exceed 0.1% of the total incubation volume. 7. Remove 100 μl of incubation mix into test tube for no cofactor control. Whirlimix and put into a rack in the thermostatically controlled shaking water bath. 8. Pre-incubate the tube containing the incubation mix, also positive control and no cofactor tubes in the thermostatically controlled shaking water bath set at 37° C. for approx 5 min. 9. Add NADP to initiate reaction (75 μl to each 1.162.5 ml incubation mix, 12.5 μl to positive control tube and 5 μl to no substrate tube) and take first time point immediately. The PNA positive control, no cofactor control and no substrate tubes are incubated for the total incubation time. 10. Remove 100 μl aliquots up to 9 different sampling points from 0 to 60 min (usually 0, 3, 5, 10, 15, 20, 30, 45 & 60 min) and terminate reaction. Longer incubation times can be used, but, after 120 min the microsomes deteriorate. The reaction may be terminated by addition of organic solvent, acid or base. At the end of the incubation process the no cofactor and no substrate controls in a similar manner i.e. terminate with the same reagent. 11. PNA Positive Control Procedure: • After the final sample has been taken, remove the positive control and add 1 ml 20% TCA to this tube. Also prepare a tube containing 250 μl of a PNP standard at 50 μM, and add 1 ml 20% TCA. Whirlimix both tubes and leave for approx 5 min to allow the protein to precipitate. • Centrifuge both tubes for approx 5 min in an instrument set at 3500 rpm. Remove 1 ml of supernatant and place into clean test tubes, discard the remainder. • Add 1 ml 10M NaOH to the supernatant, whirlimix, and leave to stand for approx min. Blank spectrophotometer with distilled water at 400 nm then measure absorbance of the PNP standard against distilled water. The microsomal 4-nitroanisole O-demethylase activity is calculated as follows: Calculation of Results
# (§9) [formula] • The activity value from the incubation MUST be equal to or greater than 85% of the mean value of the batch used for the incubation to be valid. If this criteria is not met, then the incubation must be repeated. 11. Analyse samples (including no cofactor and no substrate control) by a specific assay for the substrate to determine the disappearance kinetics. Analysis Of Data […]
# MC4 receptor = MC4 receptor (Homo sapiens, UniProt P32245); experiment: MC4 functional agonist potency (EC50), assay protocol E of US2005/0176772 / WO 2005/077935; format: cell-based; settings: functional potency at the MC4 receptor
# Chain of MC4 receptor (P32245 whole entry): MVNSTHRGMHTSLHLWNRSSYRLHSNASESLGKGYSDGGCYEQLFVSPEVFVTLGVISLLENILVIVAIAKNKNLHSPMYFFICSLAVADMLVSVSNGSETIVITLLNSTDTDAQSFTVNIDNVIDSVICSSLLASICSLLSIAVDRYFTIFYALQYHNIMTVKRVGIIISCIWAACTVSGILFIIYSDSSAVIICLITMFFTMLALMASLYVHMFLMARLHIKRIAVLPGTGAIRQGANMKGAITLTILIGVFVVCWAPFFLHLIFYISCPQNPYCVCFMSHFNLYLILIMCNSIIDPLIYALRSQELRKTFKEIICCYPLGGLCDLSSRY
# Protocol: The compounds of formula (I) of the present invention have utility as MCR4 agonists in the treatment of various disease states.
# MC5 and MC4 EC50 activity was determined as described by assay protocols D and E, respectively, in US2005/0176772 (pages 28-30).
# MC4 receptor (MC4R) = biological target: T1, MC4 receptor (MC4R) (Homo sapiens, UniProt P32245); experiment: AGRP inhibition: competition binding vs [125I]AGRP(87-132) at CHO-CRE MC4R cell membranes; settings: vs 0.3 nM [125I]AGRP(87-132)
# T1 construct: expressed in transfected cells; host or cells: CHO-CRE MC4R cells (membranes)
# T1 sequence (P32245 whole entry): as above
# Source text: Agouti related protein (AGRP) is a high affinity endogenous antagonist/inverse agonist for the MC4 receptor (Lu et al., 1994, Nature 371: 799-802; Oilman et al., 1997, Science 278: 135-138). […] It has been ascertained that this C-terminal fragment of AGRP contains the MC4R binding determinants (Yang et al., 1999, Mol Endocrinol 13: 148-155), therefore, compounds can be evaluated for their ability to inhibit AGRP binding to membranes from cells expressing the MC4R using a competition binding assay versus [^125I]AGRP(87-132). To this end cells expressing the MC4R were subject to homogenisation and the membrane fragment isolated by differential centrifugation. CHO-CRE MC4R cell membranes (12 μg protein) were incubated with 0.3 nM [^125I]AGRP(87-132) and 11 half-log concentrations of competitor ligand, in duplicate, in a total volume of 100 μl buffer (25 mM HEPES, 1 mM MgCl2, 2.5 mM CaCl2, 0.5% BSA pH 7.0). Non-specific binding was determined by the inclusion of 1 μM SHU9119. The reaction was initiated by the addition of membranes and plates were incubated at room temperature for 2 hours. The reaction was terminated by rapid filtration onto GF/C filters (presoaked in 1% PEI) using a vacuum harvester followed by five 200 μl washes of ice cold wash buffer (Binding buffer containing 500 mM NaCl). The filters were soaked in 50 μl scintillation fluid and the amount of radioactivity present was determined by liquid scintillation counting. Ki values were determined by data analysis using appropriate software.
# CYP3A4 = biological target: T2, CYP3A4 (Homo sapiens, UniProt P08684); experiment: High density drug-drug interactions (DDI) 3 μM cocktail screen in human liver microsomes; format: in vitro ADME; settings: 3 uM test compound, pooled human liver microsomes, probe midazolam 2 μM; read-out: % Inhibition of 3A4 metabolism at 3 uM
# T2 construct: utilizes human liver microsomes together with isoform-specific clinical drug probes; from tissue; host or cells: human liver microsomes
# T2 sequence (P08684 whole entry, canonical isoform): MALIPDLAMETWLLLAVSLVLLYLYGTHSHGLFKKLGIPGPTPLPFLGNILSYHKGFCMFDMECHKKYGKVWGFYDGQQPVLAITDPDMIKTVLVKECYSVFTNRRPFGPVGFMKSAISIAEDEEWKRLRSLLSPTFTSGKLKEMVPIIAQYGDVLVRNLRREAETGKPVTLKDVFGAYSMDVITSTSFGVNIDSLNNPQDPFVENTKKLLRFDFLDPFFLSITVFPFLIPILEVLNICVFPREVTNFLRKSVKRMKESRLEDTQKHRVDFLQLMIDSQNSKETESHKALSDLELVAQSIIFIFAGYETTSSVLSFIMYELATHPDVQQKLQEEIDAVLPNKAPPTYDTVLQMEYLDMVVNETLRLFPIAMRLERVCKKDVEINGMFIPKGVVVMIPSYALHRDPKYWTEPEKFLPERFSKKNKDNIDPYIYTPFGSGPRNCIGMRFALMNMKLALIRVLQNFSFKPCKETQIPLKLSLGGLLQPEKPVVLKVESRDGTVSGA
# Protocol: High Density Drug-Drug Interactions (DDI) 3 μM Cocktail Screen
# A drug interaction is a situation in which a substance affects the activity of another drug, i.e. the effects are increased or decreased, or together they produce a new effect that neither produces on its own. Drug interactions may be the result of various processes but a relatively common one is where one drug affects the pharmacokinetics of another by inhibiting the cytochrome P450 that metabolises it. Because of the importance of these phenomena, assessment of the DDI potential for new chemical entities (NCEs) is considered important early on in the drug discovery process.
# The DDI cocktail screen in human liver microsomes (HLM) is run in a fully automated fashion and the aim of the screen is to provide a single-point assessment of the DDI potential of new chemical entity (NCE; tested at 3 μM) against the 4 primary cytochrome P450 enzymes, 1A2, 2D6, 2C9 and 3A4.
# The substrate cocktail approach for P450 DDI utilizes human liver microsomes together with isoform-specific clinical drug probes and permits the simultaneous measurement of the inhibition of P450 1A2, 2C9, 2D6 & 3A4 activities in a single incubation. This is run in high throughput with simultaneous detection of metabolites by LC-MS/MS. This method has been thoroughly tested and evaluated using standard compounds.
# Appearance of the metabolite of each substrate is measured over time in the presence and absence of the NCE (test compound/inhibitor) at a concentration of 3 μM. The compounds are assessed for their inhibitory potential as a percentage value and interpreted using the following scheme.
# [2] = In vitro metabolism rate determination, human liver microsome (HLM) assay; format: in vitro ADME; settings: human liver microsomes, substrate 1 μM; read-out: HLM (intrinsic clearance)
# Source text: as §1, §2, §3, §4, §5, §6, §7, §8, §9
# human MC3 receptor = biological target: T3, human MC3 receptor (Homo sapiens, UniProt P41968); experiment: In vitro agonist potency (EC50) against melanocortin receptor type 3, cAMP in recombinant cell line; format: cell-based; settings: cell line stably transfected with human MC3, 1 hour at 37° C.
# T3 construct: stably transfected with full length cDNA encoding human MC1 or MC3 receptors; expressed in transfected cells; host or cells: Chinese hamster ovary cell line (MC3; 'respectively')
# T3 sequence (P41968 whole entry): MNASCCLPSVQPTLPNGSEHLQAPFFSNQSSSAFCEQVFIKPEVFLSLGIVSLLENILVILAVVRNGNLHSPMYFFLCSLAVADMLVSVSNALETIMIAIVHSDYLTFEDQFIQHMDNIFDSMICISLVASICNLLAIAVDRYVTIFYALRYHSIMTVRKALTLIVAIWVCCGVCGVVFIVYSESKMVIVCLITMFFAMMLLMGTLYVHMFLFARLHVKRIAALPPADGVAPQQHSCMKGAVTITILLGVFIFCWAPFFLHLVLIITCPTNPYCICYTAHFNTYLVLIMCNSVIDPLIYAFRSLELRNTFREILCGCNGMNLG
# Protocol: Measurement of In Vitro Agonist Potency (EC50) of Compounds Against Melanocortin Receptors Type 1 and 3 (MC1 and MC3).
# Activation of melanocortin (MC) receptors by agonists results in activation of intracellular adenylate cyclase enzymes that synthesise the second messenger signalling molecule, adenosine 3′,5′-cyclic monophosphate (cAMP). Changes in cAMP levels following treatment of recombinant MC1 and MC3 cell lines with test compound were measured and an MC1 and MC3 potency estimate (EC50) calculated as follows: […]
# Human embryonic kidney (HEK) or Chinese hamster ovary cell lines stably transfected with full length cDNA encoding human MC1 or MC3 receptors, respectively, were established using standard molecular biology methods. Test compounds were dissolved in dimethyl sulfoxide (DMSO) at 4 mM. 11 point half log unit increment dilution series of test compound, typically starting at 50 uM were prepared in a buffer comprised of phosphate buffered saline (PBS), 2.5% DMSO and 0.05% pluronic F-127 surfactant. Freshly cultured cells at 80-90% confluence were harvested and re-suspended in Dulbecco's Modified Eagle's Medium (DMEM). Cells (10,000 for MC3, 20,000 for MC1) were added to the test compound dilution series in a 384 well assay plate and incubated for 1 hour at 37° C. The relative cAMP concentration in each well was then measured using a β-galactosidase enzyme fragment complementation method purchased in kit form as the Discoverx cAMP II kit from GE Healthcare/Amersham Biosciences UK. In the case of MC1,3-Isobutyl-1-methylxanthine (IBMX) at a concentration of 750 μM was included in DMEM as the cells were re-suspended for assay. […] Sigmoidal curves were fitted to plots of log10 inhibitor concentration vs percent effect using a custom made software application called SIGHTS and EC50 estimates determined by the software as the concentration of test compound giving an effect half way between the bottom and top assymptopes of the sigmoidal dose response curve. Each experiment included an EC50 determination for alpha melanocyte stimulating hormone, which was used as a standard to track assay consistency and allow fair comparison between EC50 estimates obtained in different experiments.
Structure (SMILES),microsomal CLint at 1 μM [1],EC50 (MC4 receptor),Ki (MC4 receptor (MC4R)),inhibition at 3 μM (CYP3A4),microsomal CLint at 1 μM [2],EC50 (human MC3 receptor)
C[C@@H]1CN(C(=O)[C@@H]2CN(c3ccc(=O)[nH]n3)C[C@H]2c2ccc(F)cn2)C[C@H](C)[C@@]1(O)c1ccc(F)cc1 [Example 38],< 8.5 µL/min/mg,102 nM,336 nM,58%,< 7 µL/min/mg,
COc1ccc(C2CN(c3cncc(C#N)c3)CC2C(=O)N2CC(C)C(O)(c3ccc(F)cc3)C(C)C2)cn1 (stereo not drawn) [Example 15],,53.9 nM,,,,> 33400 nM
C[C@@H]1CN(C(=O)[C@@H]2CN(c3ccc(Cl)nn3)C[C@H]2c2ccc(F)cn2)C[C@H](C)[C@@]1(O)c1ccc(F)cc1 [Example 36],17 µL/min/mg,168 nM,1020 nM,59%,< 7 µL/min/mg,
COc1ccc([C@@H]2CN(c3cccnn3)C[C@H]2C(=O)N2C[C@@H](C)[C@](O)(c3ccc(F)cc3)[C@@H](C)C2)cn1 [Example 11],,111 nM,417 nM,,14 µL/min/mg,
C[C@@H]1CN(C(=O)[C@@H]2CN(c3ccc(C#N)nn3)C[C@H]2c2ccc(Cl)cn2)C[C@H](C)[C@@]1(O)c1ccccc1 [Example 29],36 µL/min/mg,7.54 nM,40 nM,59%,105 µL/min/mg,
COc1ccc([C@@H]2CN(c3ccc(Cl)nn3)C[C@H]2C(=O)N2C[C@@H](C)[C@](O)(c3ccc(F)cc3)[C@@H](C)C2)nc1 [Example 44],,284 nM,2130 nM,27%,,> 9630 nM
C[C@@H]1CN(C(=O)[C@@H]2CN(c3ccc(C#N)nn3)C[C@H]2c2ccc(F)cn2)C[C@H](C)[C@@]1(O)c1ccc(F)cc1 [Example 34],< 8.5 µL/min/mg,39.2 nM,375 nM,50%,< 7 µL/min/mg,
COc1ccc([C@@H]2CN(c3cncc(F)c3)C[C@H]2C(=O)N2C[C@@H](C)[C@](O)(c3ccc(F)cc3)[C@@H](C)C2)cn1 [Example 13],,37.6 nM,106 nM,6%,,1020 nM
COc1ccc([C@@H]2CN(c3ccc(C#N)cn3)C[C@H]2C(=O)N2C[C@@H](C)[C@](O)(c3ccc(F)cc3)[C@@H](C)C2)cn1 [Example 14],< 9.75 µL/min/mg,115 nM,,,< 9 µL/min/mg,129 nM
COc1ccc(C2CN(c3cccnn3)CC2C(=O)N2CC(C)C(O)(c3ccccc3)C(C)C2)cn1 (stereo not drawn) [Example 12],88.5 µL/min/mg,91.6 nM,,,> 352 µL/min/mg,
"C[C@@H]1CN(C(=O)[C@@H]2CN(c3ccc(Cl)nn3)C[C@H]2c2ccc(Cl)cn2)C[C@H](C)[C@@]1(O)c1ccc(F)cc1 [Example 3, (3R,4R,5S)-1-{[(3S,4S)-1-(6-Chloropyridazin-3-yl)-4-(5-chloropyridin-2-yl)pyrrolidin-3-yl]carbonyl}-4-(4-fluorophenyl)-3,5-dimethylpiperidin-4-ol]",< 19.8 µL/min/mg,11.9 nM,,60%,< 7 µL/min/mg,16.4 nM
